Reference: PubChem BioAssay (NCI)
Where “and” joins values, the source holds several entries; their conditions need not be identical. Equal values may be shown once.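 Interpolation was linear, between the two tested concentrations surrounding the appropriate level; five concentrations were tested over 48 hours in 96-well plates. GI50 = concentration required for 50% inhibition of growth. TGI: concentration producing complete growth inhibition.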

Assays:
Experiment in all cases: growth of human tumour cells (NCI), 48 h
[1] = tested on: DLD-1 colon
[2] = tested on: MOLT-4 leukemia
[3] = tested on: RPMI-8226 leukemia
[4] = tested on: COLO 205 colon
[5] = tested on: SK-MEL-28 melanoma
[6] = tested on: KM20L2 colon
[7] = tested on: EKVX NSCLC
[8] = tested on: TK-10 renal

Structure (SMILES)	TGI [1]	TGI [2]	TGI [3]	TGI [4]	TGI [5]	TGI [6]	TGI [7]	TGI [8]	GI50 [1]
COCC1N=C(c2ccc(OC)c(OCc3ccccc3)c2OC)O[C@H]1c1ccccc1 (some centres not stated)	> 100 µM	23.3 µM	36.9 µM	41.8 µM	69.8 µM	41.1 µM	> 100 µM	> 100 µM	
Brc1nc2c3ccccc3ncn2c1Br	> 100 µM	84.6 µM	> 100 µM	29.8 µM	> 100 µM	> 100 µM	95.9 µM	> 100 µM	
CN(C)CCN1N=Nc2cccc3cccc1c23	> 100 µM	> 87.3 µM	> 64.3 µM	> 100 µM	> 100 µM	> 100 µM	> 100 µM	> 100 µM	
O=NN(CCCl)C(=O)NCc1ccc[n+]([O-])c1	> 100 µM	> 100 µM	> 100 µM	> 100 µM	> 100 µM	> 100 µM	> 100 µM	> 100 µM	
CC1=CCP(C(F)(F)F)P(C(F)(F)F)C1 (configuration not stated)	> 100 µM	> 100 µM	> 100 µM	> 100 µM	> 100 µM	> 100 µM	> 100 µM	> 100 µM	
Cc1c2cc[n+](C)cc2c(C)c2c1[nH]c1ccc(OC(C)C)cc12	> 100 µM	20.4 µM and 17.1 µM	36.9 µM and > 60.5 µM	3.08 µM and 2.97 µM	12.4 µM and 17.3 µM	44.3 µM and 39.8 µM	> 100 µM	> 100 µM	1.91 µM and 6.02 µM
O=C(c1ccccc1)c1ccc2cccc(O)c2n1	> 100 µM	70.9 µM	> 100 µM	> 100 µM	> 100 µM	> 100 µM	69 µM	> 100 µM	
